For this experiment, the target named is human orexin-2 receptor (Homo sapiens (Human), UniProt O43614). Description: FLIPR Ca2+ Flux Assay, orexin-2 receptor. The format is cell-based. The conditions noted are these: CHO cells expressing the human orexin-2 receptor; agonist 70 pM Ala-6,12 orexin-A; read-out: hOX2R FLIPR IC50. The method in brief:
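CHO cells expressing rat OX1 or human OX2 receptor, Fluo-4AM loaded 60 min; compound preincubated 5 min before 70 pM Ala-6,12 human orexin-A in HBSS/20 mM HEPES/0.1% BSA/2.5 mM probenecid, pH 7.4. FLIPR peak fluorescence over 5 min versus agonist-only response gives IC50.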
A general note: A change in cytosolic calcium serves as a functional read-out for many receptors and channels.

This note sets out measurements from US10011595B2 (Merck Sharp & Dohme Corp., priority 2014, dated 2018).

Sequence of human orexin-2 receptor (O43614 whole entry): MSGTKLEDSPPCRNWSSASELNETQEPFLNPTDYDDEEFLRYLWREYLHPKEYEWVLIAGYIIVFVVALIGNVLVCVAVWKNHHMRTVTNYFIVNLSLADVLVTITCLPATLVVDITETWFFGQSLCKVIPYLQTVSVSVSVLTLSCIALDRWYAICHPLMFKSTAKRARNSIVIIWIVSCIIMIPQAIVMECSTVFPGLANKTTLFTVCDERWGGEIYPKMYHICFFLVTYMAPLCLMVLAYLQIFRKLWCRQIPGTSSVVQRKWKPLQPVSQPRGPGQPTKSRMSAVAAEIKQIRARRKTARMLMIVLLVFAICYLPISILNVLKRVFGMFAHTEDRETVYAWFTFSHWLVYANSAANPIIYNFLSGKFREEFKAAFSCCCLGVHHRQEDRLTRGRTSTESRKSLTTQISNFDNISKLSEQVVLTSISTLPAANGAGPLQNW

As for `CCN(CCN(C)c1nc(C)cc(C)n1)C(=O)c1cccnc1-n1cccn1` [Example B-24, N-{2-[(4,6-dimethylpyrimidin-2-yl)(methyl)amino]ethyl}-N-ethyl-2-(1H-pyrazol-1-yl)pyridine-3-carboxamide], the IC50 was 12.8 nM.

Take `CCN(CCN(C)c1nc(C)cc(C)n1)C(=O)c1ccccc1-n1ncnn1` [Example B-31, N-{2-[(4,6-dimethylpyrimidin-2-yl)(methyl)amino]ethyl}-N-ethyl-2-(2H-tetrazol-2-yl)benzamide]: the IC50 was 8.8 nM.

As to `CCN(CCN(C)c1cccc(C#N)n1)C(=O)c1ccccc1-n1nccn1` [Example E-14, N-{2-[(6-cyanopyridin-2-yl)(methyl)amino]ethyl}-N-ethyl-2-(2H-1,2,3-triazol-2-yl)benzamide], the IC50 came out at 569 nM.

As for `CCN(CCN(C)c1cccc(C(C)(C)O)n1)C(=O)c1ccccc1OC(F)F` [Example I-14, 2-(difluoromethoxy)-N-ethyl-N-(2-((6-(2-hydroxypropan-2-yl)pyridin-2-yl)(methyl)amino)ethyl)benz-amide], the IC50 was found to be 201 nM. In the case of `CCN(CCN(C)c1cccc(C(C)(C)O)n1)C(=O)c1cccnc1OCC(F)F` [Example I-16, 2-(2,2-difluoroethoxy)-N-ethyl-N-(2-((6-(2-hydroxypropan-2-yl)pyridin-2-yl)(methyl)amino)ethyl)nicotin-amide] it was 234 nM; in that of `CCN(CCN(C)c1cccc(C(C)(C)O)n1)C(=O)c1ccccc1OCC(F)(F)F` [Example I-17, N-ethyl-N-(2-((6-(2-hydroxypropan-2-yl)pyridin-2-yl)(methyl)amino)ethyl)-2-(2,2,2-trifluoroethoxy)benzamide], 326 nM.

Take `CCN(CCN(C)c1nccc(C(C)(C)O)n1)C(=O)c1ccccc1CC(F)(F)F` [Example H-21, N-ethyl-N-(2-((4-(2-hydroxypropan-2-yl)pyrimidin-2-yl)(methyl)amino)ethyl)-2-(2,2,2-trifluoroethyl)benzamide]: the IC50 was found to be 18 nM.

For `CCN(CCN(C)c1cccc(C(C)(C)O)n1)C(=O)c1ccccc1C1CC1(F)F` (stereo not drawn) [Example I-20, 2-(2,2-difluorocyclopropyl)-N-ethyl-N-(2-((6-(2-hydroxypropan-2-yl)pyridin-2-yl)(methyl)amino)ethyl)benz-amide], the IC50 amounted to 36.4 nM. `CCN(CCN(C)c1nccc(C(C)(C)O)n1)C(=O)c1cccnc1OC(C)C` [Example H-14, N-ethyl-N-(2-((4-(2-hydroxypropan-2-yl)pyrimidin-2-yl)(methyl)amino)ethyl)-2-isopropoxynicotinamide]: the IC50 was 65.4 nM. For `CCN(CCN(C)c1cccc(C(C)(C)O)n1)C(=O)c1ncccc1-c1ccccc1` [Example I-22, N-ethyl-N-(2-((6-(2-hydroxypropan-2-yl)pyridin-2-yl)(methyl)amino)ethyl)-3-phenylpicolinamide], the IC50 was determined as 211 nM. In the case of `CCN(CCN(C)c1nc(C)cc(C)n1)C(=O)c1ccc(F)cc1-n1nccn1` [Example B-12, N-(2-((4,6-dimethylpyrimidin-2-yl)(methyl)amino)ethyl)-N-ethyl-4-fluoro-2-(2H-1,2,3-triazol-2-yl)benzamide] it was 12.6 nM; in that of `CCN(CCN(C)c1nc(C)cc(C)n1)C(=O)c1cccnc1OC(C)C` [Example B-5, N-(2-((4,6-dimethylpyrimidin-2-yl)(methyl)amino)ethyl)-N-ethyl-2-isopropoxynicotinamide], 80 nM. In the case of `CCN(CCN(C)c1nc(C)cc(C)n1)C(=O)c1ccccc1-c1ncccn1` [Example B-32, N-{2-[(4,6-dimethylpyrimidin-2-yl)(methyl)amino]ethyl}-N-ethyl-2-pyrimidin-2-ylbenzamide] it was 19.5 nM. As for `CCN(CCN(CC)c1nc(C)cc(C)n1)C(=O)c1ccccc1-n1nccn1` [Example C-1, N-(2-((4,6-dimethylpyrimidin-2-yl)(ethyl)amino)ethyl)-N-ethyl-2-(2H-H-1,2,3-triazol-2-yl)benzamide], the IC50 is 36.6 nM.

On to `CCN(CCN(C)c1nc(OC)cc(OC)n1)C(=O)c1ccccc1-n1nccn1` [Example E-9, N-{2-[(4,6-dimethoxypyrimidin-2-yl)(methyl)amino]ethyl}-N-ethyl-2-(2H-1,2,3-triazol-2-yl)benzamide], for which the IC50 was found to be 341 nM. The result for `CCN(CCN(C)c1nc(C)cc(C)n1)C(=O)c1ccccc1CC(F)(F)F` [Example B-18, N-{2-[(4,6-dimethylpyrimidin-2-yl)(methyl)amino]ethyl}-N-ethyl-2-(2,2,2-trifluoroethyl)benzamide] reads 36.2 nM; that for `CCN(CCN(C)c1nccc(C(C)(C)O)n1)C(=O)c1ccccc1OCC(F)F` [Example H-22, 2-(2,2-difluoroethoxy)-N-ethyl-N-(2-((4-(2-hydroxypropan-2-yl)pyrimidin-2-yl)(methyl)amino)ethyl) benzamide], 17.7 nM; that for `CCN(CCN(C)c1cc(C#N)ccn1)C(=O)c1ccccc1OCCF` [Example F-13, N-{2-[(4-cyanopyridin-2-yl)(methyl)amino]ethyl}-N-ethyl-2-(2-fluoroethoxy)benzamide], 48.4 nM. Consider `CCN(CCN(C)c1nc(C)cc(C)n1)C(=O)c1cccnc1OCC(F)(F)F` [Example B-11, N-(2-((4,6-dimethylpyrimidin-2-yl)(methyl)amino)ethyl)-N-ethyl-2-(2,2,2-trifluoroethoxy)nicotinamide], for which the IC50 was 19.8 nM.

Take `CCN(CCN(C)c1ncc(Cl)c(C(F)(F)F)n1)C(=O)c1ccccc1-n1nccn1` [Example E-16, N-(2-{[5-chloro-4-(trifluoromethyl)pyrimidin-2-yl](methyl)amino}ethyl)-N-ethyl-2-(2H-1,2,3-triazol-2-yl)benzamide]: the 50% inhibitory concentration (IC50) was 84.7 nM. The result for `CCCN(CCN(C)c1cc(C#N)ccn1)C(=O)c1ccccc1-n1nccn1` [Example G-4, N-(2-((4-cyanopyridin-2-yl)(methyl)amino)ethyl)-N-propyl-2-(2H-1,2,3-triazol-2-yl)benzamide] reads 12.1 nM. The result for `CN(CCN(C)c1cc(C#N)ccn1)C(=O)c1ccccc1-n1nccn1` [Example G-1, N-(2-((4-cyanopyridin-2-yl)(methyl)amino)ethyl)-N-methyl-2-(2H-1,2,3-triazol-2-yl)benzamide] reads 88 nM. Consider `CCN(CCN(C)c1nc(C)cc(C)n1)C(=O)c1ccccc1N1CCCC1` [Example B-30, N-{2-[(4,6-dimethylpyrimidin-2-yl)(methyl)amino]ethyl}-N-ethyl-2-pyrrolidin-1-ylbenzamide], for which the half-maximal inhibitory concentration (IC50) stood at 18.5 nM. The result for `CCOc1ccccc1C(=O)N(CC)CCN(C)c1nc(C)cc(C)n1` [Example B-13, N-(2-((4,6-dimethylpyrimidin-2-yl)(methyl)amino)ethyl)-2-ethoxy-N-ethylbenzamide] reads 16 nM; that for `CCN(CCN(C)c1nccc(C(C)(C)O)n1)C(=O)c1cccnc1CC(F)(F)F` [Example H-23, N-ethyl-N-(2-((4-(2-hydroxypropan-2-yl)pyrimidin-2-yl)(methyl)amino)ethyl)-2-(2,2,2-trifluoroethyl)nicotinamide], 179 nM.

For the compound `CCN(CCN(C)c1cc(C#N)ccn1)C(=O)c1ccccc1OCC(F)(F)F` [Example F-14, N-{2-[(4-cyanopyridin-2-yl)(methyl)amino]ethyl}-N-ethyl-2-(2,2,2-trifluoroethoxy)benzamide], the IC50 turned out to be 77.4 nM. In the case of `CCN(CCN(C)c1nc(C)cc(C)n1)C(=O)c1ccccc1OCC(F)(F)F` [Example B-17, N-{2-[(4,6-dimethylpyrimidin-2-yl)(methyl)amino]ethyl}-N-ethyl-2-(2,2,2-trifluoroethoxy)-benzamide] it was 11.2 nM; in that of `CCN(CCN(C)c1cc(C#N)ccn1)C(=O)c1ccccc1-n1cc(C)nn1` [Example F-21, N-{2-[(4-cyanopyridin-2-yl)(methyl)amino]ethyl}-N-ethyl-2-(4-methyl-1H-1,2,3-triazol-1-yl)benzamide], 341 nM. The result for `CN(CCN(CC1CC1)C(=O)c1ccccc1-n1nccn1)c1cc(C#N)ccn1` [Example G-7, N-(2-((4-cyanopyridin-2-yl)(methyl)amino)ethyl)-N-(cycloproplmethyl)-2-(2H-1,2,3-triazol-2-yl)benzamide] reads 35.8 nM. For the compound `CCN(CCN(C)c1cc(C#N)ccn1)C(=O)c1cc(F)ccc1-n1nccn1` [Example F-30, N-{2-[(4-cyanopyridin-2-yl)(methyl)amino]ethyl}-N-ethyl-5-fluoro-2-(2H-1,2,3-triazol-2-yl)benzamide], the IC50 worked out at 24.4 nM.

Take `CCN(CCN(CC(F)F)c1nc(C)cc(C)n1)C(=O)c1ccccc1-n1nccn1` [Example D-1, N-(2-((2,2-difluoroethyl)(4,6-dimethylpyrimidin-2-yl)amino)ethyl)-N-ethyl-2-(2H-1,2,3-triazol-2-yl)benzamide]: the half-inhibitory concentration (IC50) amounted to 56.1 nM. The result for `CCN(CCN(C)c1cc(C#N)ccn1)C(=O)c1ccccc1-c1ncc[nH]1` [Example F-24, N-{2-[(4-cyanopyridin-2-yl)(methyl)amino]ethyl}-N-ethyl-2-(1H-imidazol-2-yl)benzamide] reads 1630 nM; that for `CCN(CCN(C)c1nccc(C#N)c1Cl)C(=O)c1ccccc1-n1nccn1` [Example E-8, N-{2-[(3-chloro-4-cyanopyridin-2-yl)(methyl)amino]ethyl}-N-ethyl-2-(2H-1,2,3-triazol-2-yl)benzamide], 110 nM; that for `CCN(CCN(C)c1nccc(C#N)n1)C(=O)c1ccccc1-n1nccn1` [Example E-10, N-{2-[(4-cyanopyrimidin-2-yl)(methyl)amino]ethyl}-N-ethyl-2-(2H-1,2,3-triazol-2-yl)benzamide], 244 nM. Turning to `CCN(CCN(C)c1nccc(C(C)(C)O)n1)C(=O)c1cccnc1OCC(F)(F)F` [Example H-17], the half-inhibitory concentration (IC50) was found to be 21.7 nM. In the case of `CCN(CCN(C)c1nccc(C(C)(C)O)n1)C(=O)c1ccccc1C1CC1` [Example H-25, 2-cyclopropyl-N-ethyl-N-(2-((4-(2-hydroxypropan-2-yl)pyrimidin-2-yl)(methyl)amino)ethyl) benzamide], the IC50 was determined as 9.1 nM.

In general, IC50 refers to the concentration that inhibits the measured activity by half.
